Assays:
Type in all cases: physicochemical
[1] = Relative rate of reaction with chemically generated singlet oxygen in DMSO; settings: 2.5 mM, 1O2 from 1,4-dimethylnaphtalene-1,4-endoperoxide
Procedure: The bleaching rates for the dyes differed by two orders of magnitude. The relative rate constants kr (rel) for product formation during reaction with singlet oxygen were measured by comparing the percent conversions for dyes dissolved in DMSO containing a fixed amount of ^1O2 (2.5 mM solutions; ^1O2 generated by decomposition of 1,4-dimethylnaphtalene-1,4-endoperoxide). The rates were generally higher for dyes with a polar ground state (1a, 2a, 2b, 2d) than for the dyes with their ground state at the “cyanine limit” (3, 4). […] Olefins without allylic hydrogens react with singlet oxygen to form dioxetanes. Dioxetanes are unstable and decompose, to form two carbonyl compounds.

[2] = Absorption and fluorescence spectra, extinction coefficient, fluorescence quantum yield
Procedure: Absorption spectra were recorded on a Hewlett-Packard 8453 diode array UV-Vis spectrophotometer (Agilent Technologies, Inc., Santa Clara, Calif.), and fluorescence measurements were taken on a SPEX® Fluorolog 2 spectrofluorometer (HORIBA Jobin Yvon, Inc., Edison, N.J.). Melting points are not corrected. NMR spectra were obtained on a Varian Mercury 300 MHz (Varian, Inc., Palo Alto, Calif.) or on a Bruker 300 MHz DRX 300 spectrometer (Bruker Biospin Corp., Billerica, Mass.). Mass spectra were obtained on a Hewlett-Packard 1100 high-performance liquid chromatograph equipped with an 1100 mass selective detector (MS-ESI) (Agilent Technologies, Inc.).
With decreasing solvent polarity, the absorption maximum of dyes 1a-b, 2a-d shifted to longer wavelengths, and the intensity of the transition increased (Table 10, FIG. 11).
The SCRF/VSCRF predicted emission energies and the solute dipole moments before and after the vertical emission process are given in Table 16. The dipole moments of AI-BA(4) and AI-SO(4) are further decreased on the S1 surface after geometry relaxation (in MeOH solution), and then increased during the S1→S0 transition. This observation is consistent with the blue shifts of the emission bands of AI-BA(4) and AI-SO(4) with increasing solvent polarity from C6H6 to MeOH. By contrast, the dipole moment of I-SO further decreases after S1 state geometry relaxation, and then decreases during the vertical emission process. This observation also is in agreement with the red shift of the I-SO emission band with increasing solvent polarity from C6H6 to MeOH. Similarly to the absorption case, a negligible red shift (ΔEem=0.017 eV) was predicted for the emission band of I-TBA with increasing solvent polarity. A small red shift from C6H6 to DMF (with ΔEem=0.020 eV, or Δλmax=6 nm) is observed. The nearly equal emission energy observed in C6H6 and MeOH can again result in the explicit interactions between the solute and solvent molecules.

[3] = Photobleaching under constant illumination from a halogen tungsten lamp filtered through glass; settings: MeOH; for kph(rel) (relative rate of photobleaching): with respect to standard I-TBA in MeOH
Description: The photostability of dyes can be important for applications in living cells. The mechanism of photobleaching for merocyanines of varying structure has been examined See Toutchkine et al., J. Am. Chem. Soc. 125:4132-4145 (2003). The photostability of the presently disclosed dyes was characterized by exposing them to constant illumination from a halogen tungsten lamp filtered through glass. This broad spectrum light source provided essentially equal intensity throughout the spectral range where the dyes absorb and where they would be irradiated in vivo (about 600 nm to about 650 nm).

CCN1C(=O)\C(=C/C=C/C=C2/N(C)c3ccccc3C2(C)C)C(O)N(CC)C1=S (stereo not drawn) [I-TBA, reference compound]
kr(rel) (relative rate constants for product formation during reaction with singlet oxygen produced chemically) [1]: 1.00 | Absorption energy Eabs Exp ([2]; C6H6): 2.123 eV | Emission energy Eem Exp ([2]; C6H6): 2.050 eV | Absorption energy Eabs Exp ([2]; MeOH): 2.127 eV | Emission energy Eem Exp ([2]; MeOH): 2.056 eV | Observed absorption (ε) ([2]; Table 10, BuOH): (190000) | Observed absorption λmax ([2]; Table 10, BuOH): 589 nm | Observed absorption (ε) ([2]; Table 10, C6H6): (127000) | Observed absorption λmax ([2]; Table 10, C6H6): 584 nm | Observed absorption (ε) ([2]; Table 10, DMF): (183000) | Observed absorption λmax ([2]; Table 10, DMF): 589 nm | Observed absorption (ε) ([2]; Table 10, MeOH): (173000) | Observed absorption λmax ([2]; Table 10, MeOH): 583 nm | Observed absorption (ε) ([2]; Table 10, OcOH): (180000) | Observed absorption λmax ([2]; Table 10, OcOH): 590 nm | Absorption Exp wavelength ([2]; Table 12, C6H6): 585 nm | Absorption Exp wavelength ([2]; Table 12, MeOH): 583 nm | Observed emission (Φ) ([2]; Table 15, BuOH): 0.61 | Observed emission λmax ([2]; Table 15, BuOH): 609 nm | Observed emission (Φ) ([2]; Table 15, C6H6): 0.20 | Observed emission λmax ([2]; Table 15, C6H6): 605 nm | Observed emission (Φ) ([2]; Table 15, DMF): 0.94 | Observed emission λmax ([2]; Table 15, DMF): 611 nm | Observed emission (Φ) ([2]; Table 15, MeOH): 0.26 | Observed emission λmax ([2]; Table 15, MeOH): 603 nm | Observed emission (Φ) ([2]; Table 15, OcOH): 0.99 | Observed emission λmax ([2]; Table 15, OcOH): 609 nm | Observed red shift of emission ΔEem ([2]; from C6H6 to DMF): 0.020 eV | Observed red shift of emission Δλmax ([2]; from C6H6 to DMF): 6 nm | Observed red shift of absorption Δλmax ([2]; from C6H6 to OcOH): 6 nm | Observed blue shift of absorption Δλmax ([2]; from OcOH to MeOH): 7 nm | kph * 10^6 (absolute rate of photobleaching) [3]: 0.34 s^−1 | kph(rel) (relative rate of photobleaching) [3]: 1.00

CC1(C)c2ccccc2-[n+]2ccc(/C=C/C3=C([O-])c4ccccc4S3(=O)=O)cc21 [AI-SO(2)]
kr(rel) (relative rate constants for product formation during reaction with singlet oxygen produced chemically) [1]: 20.3 | Observed absorption (ε) ([2]; Table 10, BuOH): (120000) | Observed absorption λmax ([2]; Table 10, BuOH): 554 nm | Observed absorption (ε) ([2]; Table 10, C6H6): (235000) | Observed absorption λmax ([2]; Table 10, C6H6): 570 nm | Observed absorption (ε) ([2]; Table 10, CH2Cl2): (218000) | Observed absorption λmax ([2]; Table 10, CH2Cl2): 561 nm | Observed absorption (ε) ([2]; Table 10, CH3CN): (149000) | Observed absorption λmax ([2]; Table 10, CH3CN): 549 nm | Observed absorption (ε) ([2]; Table 10, DMF): (157000) | Observed absorption λmax ([2]; Table 10, DMF): 556 nm | Observed absorption (ε) ([2]; Table 10, DMSO): (126000) | Observed absorption λmax ([2]; Table 10, DMSO): 555 nm | Observed absorption (ε) ([2]; Table 10, EtOH): (111000) | Observed absorption λmax ([2]; Table 10, EtOH): 549 nm | Observed absorption (ε) ([2]; Table 10, MeOH): (92000) | Observed absorption λmax ([2]; Table 10, MeOH): 542 nm | Observed absorption (ε) ([2]; Table 10, OcOH): (150000) | Observed absorption λmax ([2]; Table 10, OcOH): 559 nm | Observed absorption (ε) ([2]; Table 10, i-PrOH): (132000) | Observed absorption λmax ([2]; Table 10, i-PrOH): 553 nm | Observed emission (Φ) ([2]; Table 15, BuOH): 0.16 | Observed emission λmax ([2]; Table 15, BuOH): 567 nm | Observed emission (Φ) ([2]; Table 15, C6H6): 0.02 | Observed emission λmax ([2]; Table 15, C6H6): 577 nm | Observed emission (Φ) ([2]; Table 15, CH2Cl2): 0.06 | Observed emission λmax ([2]; Table 15, CH2Cl2): 571 nm | Observed emission (Φ) ([2]; Table 15, CH3CN): 0.06 | Observed emission λmax ([2]; Table 15, CH3CN): 561 nm | Observed emission (Φ) ([2]; Table 15, DMF): 0.16 | Observed emission λmax ([2]; Table 15, DMF): 567 nm | Observed emission (Φ) ([2]; Table 15, DMSO): 0.24 | Observed emission λmax ([2]; Table 15, DMSO): 567 nm | Observed emission (Φ) ([2]; Table 15, EtOH): 0.09 | Observed emission λmax ([2]; Table 15, EtOH): 563 nm | Observed emission (Φ) ([2]; Table 15, MeOH): 0.05 | Observed emission λmax ([2]; Table 15, MeOH): 561 nm | Observed emission (Φ) ([2]; Table 15, OcOH): 0.21 | Observed emission λmax ([2]; Table 15, OcOH): 569 nm | Observed emission (Φ) ([2]; Table 15, i-PrOH): 0.13 | Observed emission λmax ([2]; Table 15, i-PrOH): 565 nm | kph * 10^6 (absolute rate of photobleaching) [3]: 0.7 s^−1 | kph(rel) (relative rate of photobleaching) [3]: 2.1

Cn1c([O-])c(/C=C/C=C/c2cc[n+]3c(c2)C(C)(C)c2ccccc2-3)c(=O)n(C)c1=O [AI-BA]
kr(rel) (relative rate constants for product formation during reaction with singlet oxygen produced chemically) [1]: 25.6 | Absorption energy Eabs Exp ([2]; C6H6): 1.873 eV | Emission energy Eem Exp ([2]; C6H6): 1.851 eV | Absorption energy Eabs Exp ([2]; MeOH): 2.120 eV | Emission energy Eem Exp ([2]; MeOH): 2.006 eV | Observed absorption (ε) ([2]; Table 10, BuOH): (154000) | Observed absorption λmax ([2]; Table 10, BuOH): 615 nm | Observed absorption (ε) ([2]; Table 10, C6H6): ±201000) | Observed absorption λmax ([2]; Table 10, C6H6): 662 nm | Observed absorption (ε) ([2]; Table 10, CH2Cl2): (224000) | Observed absorption λmax ([2]; Table 10, CH2Cl2): 647 nm | Observed absorption (ε) ([2]; Table 10, CH3CN): (141000) | Observed absorption λmax ([2]; Table 10, CH3CN): 621 nm | Observed absorption (ε) ([2]; Table 10, DMF): (146000) | Observed absorption λmax ([2]; Table 10, DMF): 625 nm | Observed absorption (ε) ([2]; Table 10, DMSO): (122000) | Observed absorption λmax ([2]; Table 10, DMSO): 617 nm | Observed absorption (ε) ([2]; Table 10, EtOH): (104000) | Observed absorption λmax ([2]; Table 10, EtOH): 604 nm | Observed absorption (ε) ([2]; Table 10, MeOH): (83000) | Observed absorption λmax ([2]; Table 10, MeOH): 585 nm | Observed absorption (ε) ([2]; Table 10, OcOH): (143000) | Observed absorption λmax ([2]; Table 10, OcOH): 628 nm | Observed absorption (ε) ([2]; Table 10, i-PrOH): (132000) | Observed absorption λmax ([2]; Table 10, i-PrOH): 614 nm | Absorption Exp wavelength ([2]; Table 12, C6H6): 662 nm | Absorption Exp wavelength ([2]; Table 12, MeOH): 585 nm | Observed emission (Φ) ([2]; Table 15, BuOH): 0.29 | Observed emission λmax ([2]; Table 15, BuOH): 654 nm | Observed emission (Φ) ([2]; Table 15, C6H6): 0.01 | Observed emission λmax ([2]; Table 15, C6H6): 670 nm | Observed emission (Φ) ([2]; Table 15, CH2Cl2): 0.03 | Observed emission λmax ([2]; Table 15, CH2Cl2): 664 nm | Observed emission (Φ) ([2]; Table 15, CH3CN): 0.05 | Observed emission λmax ([2]; Table 15, CH3CN): 652 nm | Observed emission (Φ) ([2]; Table 15, DMF): 0.26 | Observed emission λmax ([2]; Table 15, DMF): 658 nm | Observed emission (Φ) ([2]; Table 15, DMSO): 0.23 | Observed emission λmax ([2]; Table 15, DMSO): 657 nm | Observed emission (Φ) ([2]; Table 15, EtOH): 0.19 | Observed emission λmax ([2]; Table 15, EtOH): 651 nm | Observed emission (Φ) ([2]; Table 15, MeOH): 0.52 | Observed emission λmax ([2]; Table 15, MeOH): 618 nm | Observed emission (Φ) ([2]; Table 15, OcOH): 0.64 | Observed emission λmax ([2]; Table 15, OcOH): 656 nm | Observed emission (Φ) ([2]; Table 15, i-PrOH): 0.22 | Observed emission λmax ([2]; Table 15, i-PrOH): 652 nm | Eabs(MeOH)-Eabs(C6H6) Exp ([2]; blue shift of absorption band C6H6 to MeOH): 0.247 eV | kph * 10^6 (absolute rate of photobleaching) [3]: 68 s^−1 | kph(rel) (relative rate of photobleaching) [3]: 200

Source: patent publication US8835632B2, “Methods to increase the photostability of dyes” (The University of North Carolina at Chapel Hill, priority 2007, dated 2014)
